{"source": "ChEMBL document CHEMBL1201862", "about": "“PubChem BioAssay data set” (2004)", "key": {"[1]": {"test": "THP-1 cell cytotoxicity, dose response, cytotoxicity control for non-replicating M. tuberculosis project (AID 489025)", "format": "functional"}, "[2]": {"system": "INS1", "test": "INS-1E survival protection against cytokine death – cell-based, luminescence, retest, dose response (AID 449756);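 note: cell death triggered by IL-1 beta plus TNF-alpha plus IFN-gamma mixture; protective hits raise ATP signal compared with cytokine alone wells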", "format": "functional", "details": "Rattus norvegicus, INS1"}, "[3]": {"test": "cells", "format": "functional"}, "[4]": {"molecular_target": "T1, Microphthalmia-associated transcription factor (Homo sapiens, UniProt O75030)", "T1 sequence (O75030 whole entry)": "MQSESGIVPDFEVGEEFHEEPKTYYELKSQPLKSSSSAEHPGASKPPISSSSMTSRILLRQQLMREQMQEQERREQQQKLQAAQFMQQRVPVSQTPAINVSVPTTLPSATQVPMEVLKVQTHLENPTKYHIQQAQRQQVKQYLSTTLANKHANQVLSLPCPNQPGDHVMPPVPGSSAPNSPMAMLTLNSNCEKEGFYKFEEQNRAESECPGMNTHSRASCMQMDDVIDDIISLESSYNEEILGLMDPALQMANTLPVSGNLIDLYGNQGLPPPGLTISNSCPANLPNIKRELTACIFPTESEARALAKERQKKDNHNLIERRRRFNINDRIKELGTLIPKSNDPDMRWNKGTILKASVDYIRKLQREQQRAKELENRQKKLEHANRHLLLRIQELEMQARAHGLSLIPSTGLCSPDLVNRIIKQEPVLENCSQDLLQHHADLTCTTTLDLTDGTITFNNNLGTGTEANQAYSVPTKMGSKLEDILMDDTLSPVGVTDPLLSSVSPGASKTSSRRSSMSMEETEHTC", "test": "reducers of TRPM1 reporter luminescence, concentration series – cell-based, SK-MEL-5, cherry-picked, set 3, MITF inhibitor project, dose response (AID 493073)", "format": "functional"}, "[5]": {"test": "NIH3T3 cell viability loss – ATP luminescence, mouse fibroblasts, counter-screen, dose response (AID 2010);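 note: cells exposed to compound for about 90 hours before reading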", "format": "functional, cell-based"}, "[6]": {"test": "Luminescence Cell-Based Dose Retest to Confirm Inhibitors of Cancer Stem Cells. [Related pubchem assays (depositor defined):AID2717, AID2721]", "format": "functional", "details": "Homo sapiens"}, "[7]": {"test": "Vero E6 cell cytotoxicity, dose response, cytotoxicity control for non-replicating M. tuberculosis project, secondary assay (AID 492998)", "format": "functional, VeroE6", "details": "Vero C1008"}, "[8]": {"test": "Trypanosoma cruzi growth suppression in host cells – NIH3T3 host cells, beta-gal luminescence, confirmation (AID 2044);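 note: intracellular parasites grown in NIH/3T3 mouse fibroblasts as host cells; luminescent beta-galactosidase reporter signal from transgenic T. cruzi replicating inside host cells; inhibitors lower the luminescence signal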", "format": "functional, cell-based"}, "[9]": {"test": "HepG2 cell cytotoxicity, dose response, cytotoxicity control for non-replicating M. tuberculosis project (AID 489018)", "format": "functional", "details": "Mycobacterium tuberculosis"}, "[10]": {"system": "A-375", "test": "MITF: Counter assay: A375 proliferation Measured in Cell-Based System Using Plate Reader - 2084-03_Inhibitor_Dose_DryPowder_Activity. [Related pubchem assays (depositor defined):AID488944]", "format": "functional", "details": "Homo sapiens"}, "[11]": {"test": "viability of HCT116 lacking mutant beta-catenin – cell-based, human colon tumor, dose response (AID 1045);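 note: HCT116 colon tumor cells with beta catenin knocked out; cells exposed to compound for 60 hours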", "format": "functional"}, "[12]": {"test": "viability of PTEN-deleted HCT116 cells – cell-based, HCT116 PTEN knockout, dose response (AID 1047);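 note: HCT116 colon tumor cells with PTEN knocked out; cells exposed to compound for 60 hours before readout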", "format": "functional"}, "[13]": {"molecular_target": "T2, Hexokinase-1 (Homo sapiens, UniProt P19367)", "T2 sequence (P19367 whole entry)": "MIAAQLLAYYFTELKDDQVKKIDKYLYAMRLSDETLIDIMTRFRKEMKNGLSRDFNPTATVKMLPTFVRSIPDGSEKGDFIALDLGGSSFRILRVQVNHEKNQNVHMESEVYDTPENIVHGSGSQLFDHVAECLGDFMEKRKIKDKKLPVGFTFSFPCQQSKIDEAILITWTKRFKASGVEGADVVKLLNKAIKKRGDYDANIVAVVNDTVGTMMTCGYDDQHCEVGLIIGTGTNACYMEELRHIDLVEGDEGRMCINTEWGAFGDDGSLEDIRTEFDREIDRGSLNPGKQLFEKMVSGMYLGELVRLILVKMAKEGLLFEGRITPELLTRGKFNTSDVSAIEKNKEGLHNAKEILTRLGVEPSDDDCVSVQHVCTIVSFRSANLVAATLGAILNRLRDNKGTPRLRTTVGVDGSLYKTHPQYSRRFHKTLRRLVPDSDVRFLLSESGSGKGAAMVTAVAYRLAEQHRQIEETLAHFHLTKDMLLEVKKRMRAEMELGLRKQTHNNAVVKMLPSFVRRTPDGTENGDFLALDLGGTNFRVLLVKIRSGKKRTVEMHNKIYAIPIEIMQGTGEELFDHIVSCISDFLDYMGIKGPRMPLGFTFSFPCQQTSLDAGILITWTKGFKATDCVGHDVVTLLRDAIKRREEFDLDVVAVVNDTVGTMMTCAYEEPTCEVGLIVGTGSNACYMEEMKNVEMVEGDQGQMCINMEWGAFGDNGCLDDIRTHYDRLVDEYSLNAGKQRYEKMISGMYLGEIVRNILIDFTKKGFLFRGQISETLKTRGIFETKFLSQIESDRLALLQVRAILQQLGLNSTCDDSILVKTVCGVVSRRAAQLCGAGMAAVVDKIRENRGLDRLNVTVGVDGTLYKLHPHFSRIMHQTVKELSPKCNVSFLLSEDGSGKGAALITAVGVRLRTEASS", "test": "SAR analysis of small molecule inhibitors of hexokinase domain containing I (HKDC1) in the hexokinase 1 selectivity assay. [Related pubchem assays (depositor defined):AID493160, AID493190]", "format": "functional"}, "[14]": {"molecular_target": "T3, Hexokinase HKDC1 (Homo sapiens, UniProt Q2TB90)", "T3 sequence (Q2TB90 whole entry)": "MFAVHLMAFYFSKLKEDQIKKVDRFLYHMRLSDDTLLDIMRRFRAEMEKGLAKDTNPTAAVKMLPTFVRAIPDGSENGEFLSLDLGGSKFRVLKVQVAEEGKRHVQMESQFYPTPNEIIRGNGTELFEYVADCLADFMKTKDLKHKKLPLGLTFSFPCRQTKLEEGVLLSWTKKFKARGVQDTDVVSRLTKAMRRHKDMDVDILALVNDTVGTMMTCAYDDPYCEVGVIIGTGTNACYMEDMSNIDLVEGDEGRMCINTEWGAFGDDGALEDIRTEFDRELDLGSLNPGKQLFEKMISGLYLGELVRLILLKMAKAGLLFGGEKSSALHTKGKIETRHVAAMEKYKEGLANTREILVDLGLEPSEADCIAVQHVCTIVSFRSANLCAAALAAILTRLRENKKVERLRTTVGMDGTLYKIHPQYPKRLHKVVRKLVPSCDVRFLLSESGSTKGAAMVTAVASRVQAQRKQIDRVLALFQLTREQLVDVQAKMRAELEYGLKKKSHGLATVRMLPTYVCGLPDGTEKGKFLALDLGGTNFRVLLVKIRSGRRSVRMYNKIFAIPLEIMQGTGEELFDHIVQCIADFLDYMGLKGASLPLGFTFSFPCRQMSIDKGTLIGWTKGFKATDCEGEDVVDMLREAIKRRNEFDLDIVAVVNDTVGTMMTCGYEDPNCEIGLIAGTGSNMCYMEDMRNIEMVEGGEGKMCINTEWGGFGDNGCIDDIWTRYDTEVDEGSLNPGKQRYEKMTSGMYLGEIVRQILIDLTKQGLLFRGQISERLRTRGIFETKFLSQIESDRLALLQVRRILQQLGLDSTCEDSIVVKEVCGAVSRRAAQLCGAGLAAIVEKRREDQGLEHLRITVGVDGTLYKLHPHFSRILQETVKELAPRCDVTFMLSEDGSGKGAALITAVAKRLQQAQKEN", "test": "SAR analysis of small molecule inhibitors of hexokinase domain containing I (HKDC1). [Related pubchem assays (depositor defined):AID493160, AID493190]", "format": "functional"}, "[15]": {"test": "M. tuberculosis H37Rv growth inhibitors, H37Rv strain (AID 1626)", "format": "functional"}, "[16]": {"molecular_target": "Type-1 angiotensin II receptor (Homo sapiens, UniProt P30556)", "sequence (P30556 whole entry)": "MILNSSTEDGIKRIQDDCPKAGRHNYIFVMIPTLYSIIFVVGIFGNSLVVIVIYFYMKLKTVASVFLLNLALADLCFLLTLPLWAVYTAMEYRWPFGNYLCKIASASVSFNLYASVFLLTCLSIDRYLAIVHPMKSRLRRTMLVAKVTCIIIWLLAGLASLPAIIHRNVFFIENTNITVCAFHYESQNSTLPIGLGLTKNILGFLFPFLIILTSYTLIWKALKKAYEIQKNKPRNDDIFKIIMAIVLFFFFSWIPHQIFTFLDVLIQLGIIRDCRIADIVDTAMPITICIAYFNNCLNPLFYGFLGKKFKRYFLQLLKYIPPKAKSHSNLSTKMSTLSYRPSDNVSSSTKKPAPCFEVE", "test": "antagonism of angiotensin II type 1 receptor – cell-based, uHTS hits, selectivity assay for APJ receptor antagonist project, dose response (AID 463214);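 note: antagonist potency against angiotensin II stimulated AT1 response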", "format": "functional"}, "[17]": {"molecular_target": "Beta-galactosidase (Escherichia coli, UniProt Q8VNN2)", "sequence (Q8VNN2 whole entry)": "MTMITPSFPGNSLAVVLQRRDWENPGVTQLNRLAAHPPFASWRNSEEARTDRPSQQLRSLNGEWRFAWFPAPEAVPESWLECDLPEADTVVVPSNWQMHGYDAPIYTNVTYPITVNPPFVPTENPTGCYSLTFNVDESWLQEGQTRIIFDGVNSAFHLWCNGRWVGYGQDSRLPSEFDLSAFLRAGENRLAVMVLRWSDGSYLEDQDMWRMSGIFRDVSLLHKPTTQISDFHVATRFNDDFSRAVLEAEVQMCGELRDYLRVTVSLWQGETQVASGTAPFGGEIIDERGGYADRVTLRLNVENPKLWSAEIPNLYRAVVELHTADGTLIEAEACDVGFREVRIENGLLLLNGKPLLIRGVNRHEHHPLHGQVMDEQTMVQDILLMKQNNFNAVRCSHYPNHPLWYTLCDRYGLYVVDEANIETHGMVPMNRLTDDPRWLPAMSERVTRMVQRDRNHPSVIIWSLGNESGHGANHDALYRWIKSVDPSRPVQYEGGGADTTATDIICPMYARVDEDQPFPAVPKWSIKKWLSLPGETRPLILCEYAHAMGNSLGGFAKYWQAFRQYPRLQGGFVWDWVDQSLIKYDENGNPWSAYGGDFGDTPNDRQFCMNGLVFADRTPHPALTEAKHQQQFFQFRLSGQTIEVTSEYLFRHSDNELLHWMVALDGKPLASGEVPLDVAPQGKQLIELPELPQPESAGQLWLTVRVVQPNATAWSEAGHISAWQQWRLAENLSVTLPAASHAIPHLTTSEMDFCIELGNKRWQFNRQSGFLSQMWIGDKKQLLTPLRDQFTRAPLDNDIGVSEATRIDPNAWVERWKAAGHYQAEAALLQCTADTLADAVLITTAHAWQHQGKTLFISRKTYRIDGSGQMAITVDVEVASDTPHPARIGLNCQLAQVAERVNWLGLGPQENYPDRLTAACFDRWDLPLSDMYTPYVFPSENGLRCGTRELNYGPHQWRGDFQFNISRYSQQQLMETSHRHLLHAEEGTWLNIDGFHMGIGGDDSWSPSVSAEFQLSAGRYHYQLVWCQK", "test": "PubChem AID 485352", "format": "functional"}, "[18]": {"system": "A-375", "test": "proliferation inhibition in MITF-low A375 cells – cell-based, cherry-pick samples, set 2, counter-screen for MITF modulator project, dose response (AID 540335)", "format": "functional", "details": "Homo sapiens"}, "[19]": {"molecular_target": "T4, Ubiquitin-conjugating enzyme E2 N (Homo sapiens, UniProt P61088)", "T4 sequence (P61088 whole entry)": "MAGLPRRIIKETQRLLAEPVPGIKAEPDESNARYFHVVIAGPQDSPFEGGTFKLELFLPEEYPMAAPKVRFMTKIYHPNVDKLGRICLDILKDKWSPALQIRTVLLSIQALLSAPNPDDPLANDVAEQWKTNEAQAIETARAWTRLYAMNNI", "format": "functional"}, "[20]": {"test": "viability loss in HepG2 hepatoma cells – cell-based, ATP luminescence, cherry-pick, activator set 2, cytotoxicity control, dose response (AID 1053143)", "format": "functional"}, "[21]": {"molecular_target": "T5, Heat shock factor protein 1 (Mus musculus, UniProt P38532)", "T5 sequence (P38532 whole entry)": "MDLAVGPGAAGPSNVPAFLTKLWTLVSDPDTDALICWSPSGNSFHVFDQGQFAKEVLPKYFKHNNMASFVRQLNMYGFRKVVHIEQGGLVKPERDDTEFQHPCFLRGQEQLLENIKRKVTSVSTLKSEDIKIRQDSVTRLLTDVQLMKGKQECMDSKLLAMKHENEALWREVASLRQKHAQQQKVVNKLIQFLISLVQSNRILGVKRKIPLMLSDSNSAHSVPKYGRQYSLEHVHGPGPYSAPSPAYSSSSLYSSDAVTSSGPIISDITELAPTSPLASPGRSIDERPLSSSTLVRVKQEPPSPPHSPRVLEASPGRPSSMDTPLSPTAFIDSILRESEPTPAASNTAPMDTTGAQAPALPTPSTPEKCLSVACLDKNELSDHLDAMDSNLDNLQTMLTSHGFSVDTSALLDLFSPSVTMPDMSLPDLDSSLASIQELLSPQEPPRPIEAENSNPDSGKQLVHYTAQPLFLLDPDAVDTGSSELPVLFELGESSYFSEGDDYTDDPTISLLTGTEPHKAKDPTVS", "test": "enhancement of HSF1-driven luciferase signal – cell-based, NIH3T3, luminescence, dose retest, confirmation (AID 435004);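 note: stress induced by proteasome inhibitor MG132 added 30 min after compound; actives raise luminescence as potentiators of the MG132 stress response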", "format": "functional"}}, "note": "Calls of active or inactive are those of the source.", "data": [{"smiles": "COc1cc(CNC2CCCC2)cc(Cl)c1OCc1ccccc1Cl", "values": [{"measurement": "CC50", "setting": "[1]", "value": "18.3 µM (active)"}, {"measurement": "AC50", "setting": "[2]", "value": "7.36 µM (active)"}, {"measurement": "IC50", "setting": "[3]", "value": "16.8 µM (active)"}, {"measurement": "AC50", "setting": "[4]", "value": "17.7 µM (active)"}, {"measurement": "EC50", "setting": "[5]", "value": "13.8 µM (active)"}, {"measurement": "AC50", "setting": "[6]", "value": "5.89 µM (active)"}, {"measurement": "CC50", "setting": "[7]", "value": "> 20 µM (active)"}, {"measurement": "EC50", "setting": "[8]", "value": "1.17 µM (active)"}, {"measurement": "CC50", "setting": "[9]", "value": "19.1 µM (active)"}, {"measurement": "AC50", "setting": "[10]", "value": "17.5 µM (active)"}, {"measurement": "EC50", "setting": "[11]", "value": "12.1 µM (active)"}, {"measurement": "EC50", "setting": "[12]", "value": "14.6 µM (active)"}]}, {"smiles": "O=c1c2ccccc2nc(/C=C/c2ccc(Br)cc2)n1Cc1ccccc1", "values": [{"measurement": "IC50", "setting": "[13]", "value": "> 80 µM (inactive)"}, {"measurement": "IC50", "setting": "[14]", "value": "> 80 µM (inactive)"}]}, {"smiles": "Cc1ccc(C(=O)CNc2ccc(C)c(Cl)c2)cc1", "values": [{"measurement": "IC50", "setting": "[15]", "value": "> 100 µM (active)"}, {"measurement": "IC50", "setting": "[16]", "value": "5.43 µM (active)"}, {"measurement": "EC50", "setting": "[17]", "value": "> 40 µM (inactive)"}]}, {"smiles": "Cc1ccc(C(=O)Nc2nnc(SCc3ccc(C#N)cc3)s2)cc1", "values": [{"measurement": "IC50", "setting": "[13]", "value": "> 80 µM (inactive)"}, {"measurement": "IC50", "setting": "[14]", "value": "> 80 µM (inactive)"}]}, {"smiles": "COc1ccc(C[C@H]2CN3C(=NC[C@@H]3C(C)C)N2CCNC(=O)c2ccc(C)c(Br)c2)cc1", "values": [{"measurement": "AC50", "setting": "[18]", "value": "34.3 µM (active)"}, {"measurement": "IC50", "setting": "[19]", "value": "> 20 µM (inactive)"}]}, {"smiles": "C#Cc1cccc(NC(=O)CSc2nnc(-c3ccc(C(F)(F)F)cn3)o2)c1", "values": [{"measurement": "AC50", "setting": "[18]", "value": "> 11 µM (active)"}, {"measurement": "AC50", "setting": "[10]", "value": "> 11 µM (active)"}]}, {"smiles": "CCOc1cccc(/C=C/c2ccc3cccc(O)c3n2)c1OC", "values": [{"measurement": "AC50", "setting": "[20]", "value": "26 µM (active)"}, {"measurement": "EC50", "setting": "[5]", "value": "4.48 µM (active)"}, {"measurement": "EC50", "setting": "[8]", "value": "2.48 µM (active)"}, {"measurement": "IC50", "setting": "[16]", "value": "16.6 µM (active)"}, {"measurement": "EC50", "setting": "[17]", "value": "> 40 µM (inactive)"}, {"measurement": "EC50", "setting": "[21]", "value": "27.7 µM (active)"}]}]}
